Molecules are shown by their SMILES. Bounds are passed on as bounds.

Chain of human phosphoinositide-3 kinase (PI3K) delta (O00329 whole entry): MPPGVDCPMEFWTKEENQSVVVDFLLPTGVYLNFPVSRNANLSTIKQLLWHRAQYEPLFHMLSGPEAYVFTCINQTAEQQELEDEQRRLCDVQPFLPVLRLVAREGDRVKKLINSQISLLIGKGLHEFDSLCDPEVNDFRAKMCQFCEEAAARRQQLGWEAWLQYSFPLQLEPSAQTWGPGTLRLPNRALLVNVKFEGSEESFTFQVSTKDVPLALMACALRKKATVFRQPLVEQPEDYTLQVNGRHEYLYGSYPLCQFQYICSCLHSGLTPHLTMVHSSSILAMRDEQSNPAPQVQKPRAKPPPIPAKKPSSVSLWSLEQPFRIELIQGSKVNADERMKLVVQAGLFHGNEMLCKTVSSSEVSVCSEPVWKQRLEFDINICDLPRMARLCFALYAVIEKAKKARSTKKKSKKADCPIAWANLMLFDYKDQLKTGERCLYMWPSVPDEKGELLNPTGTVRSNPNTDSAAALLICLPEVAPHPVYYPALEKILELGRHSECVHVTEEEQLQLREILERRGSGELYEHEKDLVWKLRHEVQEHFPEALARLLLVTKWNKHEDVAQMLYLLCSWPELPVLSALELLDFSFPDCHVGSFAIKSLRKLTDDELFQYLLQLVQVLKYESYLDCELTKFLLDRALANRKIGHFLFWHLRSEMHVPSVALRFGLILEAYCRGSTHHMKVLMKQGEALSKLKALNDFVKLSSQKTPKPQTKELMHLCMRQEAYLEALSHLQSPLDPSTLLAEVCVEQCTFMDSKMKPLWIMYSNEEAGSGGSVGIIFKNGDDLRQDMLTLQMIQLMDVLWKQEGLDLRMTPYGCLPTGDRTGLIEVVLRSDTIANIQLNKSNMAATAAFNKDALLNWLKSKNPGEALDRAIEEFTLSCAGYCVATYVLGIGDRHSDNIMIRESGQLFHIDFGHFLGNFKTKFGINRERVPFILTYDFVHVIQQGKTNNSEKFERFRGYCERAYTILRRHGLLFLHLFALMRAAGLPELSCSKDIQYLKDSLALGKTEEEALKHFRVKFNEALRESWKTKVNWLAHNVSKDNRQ
Chain of human phosphoinositide-3 kinase (PI3K) delta (Q63787 whole entry partner): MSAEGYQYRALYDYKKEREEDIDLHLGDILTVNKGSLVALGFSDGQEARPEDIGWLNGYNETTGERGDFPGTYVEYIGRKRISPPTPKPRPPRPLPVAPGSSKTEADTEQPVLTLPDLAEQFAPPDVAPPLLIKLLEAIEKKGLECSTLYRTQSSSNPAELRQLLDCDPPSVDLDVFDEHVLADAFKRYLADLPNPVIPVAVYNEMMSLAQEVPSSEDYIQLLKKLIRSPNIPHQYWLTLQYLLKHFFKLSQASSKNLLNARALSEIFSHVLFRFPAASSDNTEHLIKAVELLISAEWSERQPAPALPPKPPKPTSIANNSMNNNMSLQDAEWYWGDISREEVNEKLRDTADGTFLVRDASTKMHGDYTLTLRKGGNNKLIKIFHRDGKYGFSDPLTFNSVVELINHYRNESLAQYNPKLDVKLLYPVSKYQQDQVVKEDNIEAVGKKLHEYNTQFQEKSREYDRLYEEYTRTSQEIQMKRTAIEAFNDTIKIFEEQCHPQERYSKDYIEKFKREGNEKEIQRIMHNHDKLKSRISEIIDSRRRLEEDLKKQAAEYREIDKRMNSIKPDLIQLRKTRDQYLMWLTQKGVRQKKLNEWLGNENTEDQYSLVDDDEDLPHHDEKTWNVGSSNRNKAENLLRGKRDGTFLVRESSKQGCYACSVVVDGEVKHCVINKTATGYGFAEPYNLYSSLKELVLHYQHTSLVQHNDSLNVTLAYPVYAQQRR

The assay has as its target human phosphoinositide-3 kinase (PI3K) delta (Homo sapiens (Human), UniProt O00329). The assay is described as follows: PI3K-mediated Akt 1/2 (S473) phosphorylation in Rat-1 cells overexpressing PI3K delta. Conditions: cellular assay, p-AKT(Ser473), read-out: Cell PI3K delta IC50. Type of assay: cell-based. As to the method:
2.1 Phosphoinositide-3 kinase (PI3K)-Mediated Akt 1/2 (S473) Phosphorylation in Rat-1 Cells
Rat-1 cells stably overexpressing a myristoylated form of the catalytic subunit of human phosphoinositide-3 kinase (PI3K) alpha, beta or delta were plated in 384-well plates at a density of 7500 (PI3K alpha), 6200 (PI3K beta), or 4000 (PI3K delta) cells in 30 ul complete growth medium (Dulbecco's modified Eagle's medium (DMEM high glucose) supplemented with 10% (v/v) fetal bovine serum, 1% (v/v) MEM non essential amino acids, 10 mM HEPES, 2 mM L-glutamine, 10 μg/mL puromycin and 1% (v/v) Penicillin/Streptomycin) and were incubated at […]/5% CO2/95% humidity for 24 h. Compounds were diluted in 384-well compound plates (compound master plates), to obtain 8-point serial dilutions for 40 test compounds in 90% DMSO, as well as 4 reference compounds plus 16 high controls and 16 low (inhibited) controls. Predilution plates were prepared by dispensing pipetting 250 nl of compound solutions into 384-well polypropylen plates (daugther plates), using a Hummingwell nanoliter dispenser. Compounds were prediluted by the addition of 49.75 ul complete growth medium. 10 ul of prediluted compound solution were transferred to the cell plate using a 384-well pipettor, resulting in a final DMSO concentration of 0.11%. Cells were incubated for 1 h at […]/5% CO2/95% humidity. The supernatant was removed, the cells were lysed in 20 ul of lysis buffer for AlphaScreen® SureFire® detection.
For detection of p-AKT(Ser473), the SureFire® p-Akt 1/2 (Ser473) Assay Kit (PerkinElmer, U.S.A.) was used. 5 ul of cell lysate was transferred to 384-well low volume Proxiplates for detection using a 384-well pipettor. Addition of AlphaScreen® SureFire® reagents was done according to the manufacturer's protocol. First, 5 ul of reaction buffer plus activation buffer mix containing AlphaScreen® acceptor beads was added, the plate was sealed, and incubated on a plate shaker for 2 hours at room temperature. Second, 2 ul of dilution buffer containing AlphaScreen® donor beads was added, and the plate was incubated on plate shaker as above for a further 2 hours. The plate was read on an AlphaScreen® compatible plate reader, using standard AlphaScreen® settings. Alternatively, p-AKT(Ser473) was detected with the CisBio HTRF Assay Kit: As positive control, 0.9 mM of 1-(3-(trifluoromethyl)-4-(piperazin-1-yl)phenyl)-8-(6-methoxypyridin-3-yl)-3-methyl-1H-imidazo[4,5-c]quinolin-2(3H)-one maleic acid salt in 90% (v/v) DMSO was added to the compound master plate. For compound testing, the cells were seeded at a density of 4000 (Rat-1_PI3Kdelta), 8000 (Rat-1_PI3Kalpha), or 6500 (Rat-1_PI3Kbeta) cells in 30 ul complete growth medium into 384-well plates, with a plastic surface promoting the adhesion of cells and their growth (assay plates) and were grown at 37° C./5% CO2/90% humidity for 24 h. Some 10 ul of the compound predilutions from the daughter plate were then transferred to the cells. After treatment with compound for 1 h, medium was removed and cells were lysed by the addition of 20 ul lysis buffer supplemented with blocking buffer. Detection of p-AKT(Ser473) was performed with the HTRF pAKT (Ser473) assay kit according to the manufacturer's instructions using 16 ul of cell lysate in a total detection volume of 20 ul.
With `COc1ccc(-c2cccc3nc([C@@H]4CCCN4c4nc(N)nc(C)c4C#N)n(-c4ccccc4)c(=O)c23)cn1` [Example 21, (S)-2-Amino-4-(2-(5-(6-methoxypyridin-3-yl)-4-oxo-3-phenyl-3,4-dihydroquinazolin-2-yl)pyrrolidin-1-yl)-6-methylpyrimidine-5-carbonitrile], the IC50 was 13 nM.
Regarding `COc1ncc(-c2cccc3nc([C@@H]4C[C@H](O)CN4c4nc(N)nc(C)c4C#N)n(-c4ccccc4)c(=O)c23)cn1` [Example 22, 2-Amino-4-((2S,4S)-4-hydroxy-2-(5-(2-methoxypyrimidin-5-yl)-4-oxo-3-phenyl-3,4-dihydroquinazolin-2-yl)pyrrolidin-1-yl)-6-methylpyrimidine-5-carbonitrile], the IC50 amounted to 7 nM.
Regarding `Cc1nc(N)nc(N2C[C@@H](O)C[C@H]2c2nc3cccc(-c4cccnc4)c3c(=O)n2-c2ccccc2)c1C#N` [Example 24, 2-Amino-4-((2S,4S)-4-hydroxy-2-(4-oxo-3-phenyl-5-(pyridin-3-yl)-3,4-dihydroquinazolin-2-yl)pyrrolidin-1-yl)-6-methylpyrimidine-5-carbonitrile], the IC50 was less than 3 nM.
As to `COc1cncc(-c2cccc3nc([C@@H]4C[C@H](O)CN4c4nc(N)nc(C)c4C#N)n(-c4ccccc4)c(=O)c23)c1` [Example 25, 2-Amino-4-((2S,4S)-4-hydroxy-2-(5-(5-methoxypyridin-3-yl)-4-oxo-3-phenyl-3,4-dihydroquinazolin-2-yl)pyrrolidin-1-yl)-6-methylpyrimidine-5-carbonitrile], the IC50 is 4 nM.
For `Cc1nc(N)nc(N2C[C@@H](O)C[C@H]2c2nc3cccc(-c4cncnc4)c3c(=O)n2-c2ccccc2)c1C#N` [Example 26, 2-Amino-4-((2S,4S)-4-hydroxy-2-(4-oxo-3-phenyl-5-(pyrimidin-5-yl)-3,4-dihydroquinazolin-2-yl)pyrrolidin-1-yl)-6-methylpyrimidine-5-carbonitrile], the IC50 turned out to be 7 nM.
To `COc1ccc(-c2cccc3nc([C@@H]4C[C@H](O)CN4c4nc(N)nc(C)c4C#N)n(-c4ccccc4)c(=O)c23)cn1` [Example 27, 2-Amino-4-((2S,4S)-4-hydroxy-2-(5-(6-methoxypyridin-3-yl)-4-oxo-3-phenyl-3,4-dihydroquinazolin-2-yl)pyrrolidin-1-yl)-6-methylpyrimidine-5-carbonitrile] belongs 6 nM.
The figure for `Cc1nc(N)nc(N2C[C@@H](O)C[C@H]2c2nc3cccc(-c4cnn(CCO)c4)c3c(=O)n2-c2ccccc2)c1C#N` [Example 28, 2-Amino-4-((2S,4S)-4-hydroxy-2-(5-(1-(2-hydroxyethyl)-1H-pyrazol-4-yl)-4-oxo-3-phenyl-3,4-dihydroquinazolin-2-yl)pyrrolidin-1-yl)-6-methylpyrimidine-5-carbonitrile] is 90 nM.
To `CCOc1ncc(-c2c(F)ccc3nc([C@@H]4C[C@H](O)CN4c4nc(N)nc(C)c4C#N)n(-c4ccccc4)c(=O)c23)cn1` [Example 29, 2-Amino-4-((2S,4S)-2-(5-(2-ethoxypyrimidin-5-yl)-6-fluoro-4-oxo-3-phenyl-3,4-dihydroquinazolin-2-yl)-4-hydroxypyrrolidin-1-yl)-6-methylpyrimidine-5-carbonitrile] belongs 6 nM.
Take `Cc1nc(N)nc(N2C[C@@H](F)C[C@H]2c2nc3cccc(-c4cnn(C)c4)c3c(=O)n2-c2ccccc2)c1C#N` [Example 30, 2-Amino-4-((2S,4S)-4-fluoro-2-(5-(1-methyl-1H-pyrazol-4-yl)-4-oxo-3-phenyl-3,4-dihydroquinazolin-2-yl)pyrrolidin-1-yl)-6-methylpyrimidine-5-carbonitrile]: the IC50 is less than 10 nM.
Regarding `Cc1nc(N)nc(N2C[C@@H](O)C[C@H]2c2nc3ccc(F)c(-c4cn(C)cn4)c3c(=O)n2-c2ccccc2)c1C#N` [Example 31, 2-Amino-4-((2S,4S)-2-(6-fluoro-5-(1-methyl-1H-imidazol-4-yl)-4-oxo-3-phenyl-3,4-dihydroquinazolin-2-yl)-4-hydroxypyrrolidin-1-yl)-6-methylpyrimidine-5-carbonitrile], the IC50 amounted to 120 nM.
To `CCOc1ncc(-c2cccc3nc([C@@H]4CCCN4c4nc(N)nc(C)c4C#N)n(-c4ccccc4)c(=O)c23)cn1` [Example 32, (S)-2-Amino-4-(2-(5-(2-ethoxypyrimidin-5-yl)-4-oxo-3-phenyl-3,4-dihydroquinazolin-2-yl)pyrrolidin-1-yl)-6-methylpyrimidine-5-carbonitrile] belongs less than 3 nM; to `N#Cc1c(N)ncnc1N1CCC[C@H]1c1nc2cccc(C#CCO)c2c(=O)n1-c1ccccc1` [Example 33, (S)-4-Amino-6-(2-(5-(3-hydroxyprop-1-yn-1-yl)-4-oxo-3-phenyl-3,4-dihydroquinazolin-2-yl)pyrrolidin-1-yl)pyrimidine-5-carbonitrile], 14 nM.

Values taken from patent US9840498B2, “Substituted quinazolin-4-one derivatives” (NOVARTIS AG, priority 2013, dated 2017).
